# From patent US11267836B2, “Methods for producing ferric maltol compositions from ligand modified and ligand coated ferric hydroxides” (Shield TX (UK) Limited, priority 2016, dated 2022)
# Tests used:
# [1] = Dissolution in ethanol (check for ferric hydroxide in ferric trimaltol); conditions: for dissolution of ferric trimaltol powder in ethanol: powders produced as per Examples 1 and 2 dissolved in ethanol, complete dissolution confirms absence of iron hydroxides
# Procedure: As such ferric trimaltol powders produced as per Examples 1 and 2 were dissolved in ethanol.
# [2] = test system: IBD patients; conditions: in vivo; cited from earlier work
# [3] = in vivo; cited from earlier work
SMILES,dissolution of ferric trimaltol powder in ethanol [1],tolerability [2],solubility in ethanol [1],absorption [3]
Cc1occc(=O)c1[O-].Cc1occc(=O)c1[O-].Cc1occc(=O)c1[O-].[Fe+3] [Example 1],did not,,,
"Cc1occc(=O)c1[O-].Cc1occc(=O)c1[O-].Cc1occc(=O)c1[O-].[Fe+3] [Ferric trimaltol, ferric trimaltol]",,well tolerated,soluble in ethanol,well absorbed
Cc1occc(=O)c1[O-].Cc1occc(=O)c1[O-].Cc1occc(=O)c1[O-].[Fe+3] [Example 2],dissolved completely,,,
